Results: PMC4261083, “An atypical residue in the pore of Varroa destructor GABA-activated RDL receptors affects picrotoxin block and thymol modulation” (Insect Biochemistry and Molecular Biology, 2014)
Numbering of substitutions follows the chain as printed.

What was measured:
Experiment in all cases: Thymol modulation of GABA concentration-response curves, two electrode voltage clamp in Xenopus oocytes
Assay type in all cases: cell-based
[1] = target: T1, A20′S mutant Drosophila RDL receptor (Drosophila melanogaster, UniProt P25123, A319S)
T1 construct: expressed in transfected cells; host or cells: Xenopus laevis oocytes injected with cRNA
T1 sequence (P25123 45-606 A319S): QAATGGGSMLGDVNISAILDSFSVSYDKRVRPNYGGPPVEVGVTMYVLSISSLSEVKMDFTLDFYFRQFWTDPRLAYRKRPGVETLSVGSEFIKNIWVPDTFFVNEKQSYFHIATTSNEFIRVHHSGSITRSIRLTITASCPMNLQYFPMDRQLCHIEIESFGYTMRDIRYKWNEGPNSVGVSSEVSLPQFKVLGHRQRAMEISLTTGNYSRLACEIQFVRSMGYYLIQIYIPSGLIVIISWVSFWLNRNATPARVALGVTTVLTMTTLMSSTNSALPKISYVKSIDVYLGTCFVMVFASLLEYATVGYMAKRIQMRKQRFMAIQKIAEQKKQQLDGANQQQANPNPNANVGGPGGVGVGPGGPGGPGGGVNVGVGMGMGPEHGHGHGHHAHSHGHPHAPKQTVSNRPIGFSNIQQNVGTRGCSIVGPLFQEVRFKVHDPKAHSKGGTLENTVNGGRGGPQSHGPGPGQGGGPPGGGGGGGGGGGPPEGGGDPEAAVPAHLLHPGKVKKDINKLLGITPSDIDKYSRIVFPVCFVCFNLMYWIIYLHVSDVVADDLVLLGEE
Protocol: (§1) X. laevis oocyte-positive females were purchased from NASCO (Fort Atkinson, Wisconsin, USA) and maintained according to standard methods. Harvested stage V-VI Xenopus oocytes were washed in four changes of ND96 (96 mM NaCl, 2 mM KCl, 1 mM MgCl2, 1 mM CaCl2, 5 mM HEPES, pH 7.5), de-folliculated in 1.5 mg ml^−1 collagenase Type 1A for approximately 2 h, washed again in four changes of ND96 and stored in ND96 containing 2.5 mM sodium pyruvate, 0.7 mM theophylline and […].
(§2) Site directed mutagenesis was performed with the QuikChange mutagenesis kit (Agilent, La Jolla, CA). cRNA was transcribed in vitro from linearised pGEMHE cDNA template using the mMessage mMachine T7 Transcription kit (Ambion, Austin, Texas, USA). Stage V and VI oocytes were injected with 5 ng cRNA, incubated at 18 °C, and currents recorded 18–24 h post-injection.
(§3) Currents were recorded at 5 kHz and filtered at a frequency of 1 kHz. Micro-electrodes were fabricated from borosilicate glass (GC120TF-10, Harvard Apparatus, Edenbridge, Kent, UK) using a one stage horizontal pull (P-87, Sutter Instrument Company, California, USA) and filled with 3 M KCl. […] Oocytes were perfused with ND96 at a constant rate of 12 ml min^−1. Drug application was via a simple gravity fed system calibrated to run at the same rate.
(§4) Analysis and curve fitting was performed using Prism v5 (GraphPad Software, San Diego, California, USA). Concentration-response data for each oocyte was normalised to the maximum current for that oocyte. The mean and S.E.M. for a series of oocytes were fitted to the four parameter logistic equation in Prism.

[2] = target: T2, wild type Drosophila RDL receptor (Drosophila melanogaster, UniProt P25123); details: WT RDL
T2 construct: expressed in transfected cells; host or cells: Xenopus laevis oocytes injected with cRNA
T2 sequence (P25123 45-606): T1 sequence (P25123 45-606 A319S) with S275A
Protocol: as §1, §2, §3, §4

[3] = target: T3, N-7′H mutant Drosophila RDL receptor (Drosophila melanogaster, UniProt P25123, N292H); details: N-7′H RDL
T3 construct: expressed in transfected cells; host or cells: Xenopus laevis oocytes injected with cRNA
T3 sequence (P25123 45-606 N292H): T1 sequence (P25123 45-606 A319S) with N248H, S275A
Protocol: as §1, §2, §3, §4

[4] = GABA EC50 control vs +100 μM thymol
[5] = GABA concentration-response in presence of 100 μM thymol

## Cc1ccc(C(C)C)c(O)c1 [Thymol, thymol]
[1]; 100 μM thymol, 1 μM GABA
  Effect of thymol on GABA-induced responses: enhance
[1]; [4]
  Fold change in EC50: 5.0
[1]; [5]
  % Imax: 81 ± 6%
[2]; 100 μM thymol, 1 μM GABA
  Effect of thymol on GABA-induced responses: enhance
[2]; [4]
  Fold change in EC50: 4.8
[2]; [5]
  % Imax: 94 ± 3%
[3]; 100 μM thymol, 1 μM GABA
  Effect of thymol on GABA-induced responses: enhance
[3]; [4]
  Fold change in EC50: 2.7
[3]; [5]
  % Imax: 82 ± 4%
